Results from patent publication US5512478A, “Genes and enzymes involved in the microbial degradation of pentachlorophenol” (Idaho Research Foundation, Inc., priority 1994, dated 1996).
Like-named read-outs stand apart in the source and are kept apart here.

Assays:
PcpB [1] = target: T1, PcpB (Sphingobium chlorophenolicum, UniProt P42535); experiment: Substrate disappearance in the presence of PcpB (substrate range); format: biochemical, Flavobacterium sp. Strain ATCC 39723; settings: for (%) Relative Activity (substrate disappearance in the presence of PcpB): 10 nmoles substrate, 40 nmoles NADPH, PcpB 500 μg/ml, 80 mM potassium phosphate pH 7.5, 0.5% Tween 20, 23° C., PCP assumed 100%; for End Products of PcpB reaction: HPLC or GC/MS analysis
T1 construct: endogenous in cells; host or cells: Flavobacterium sp; Strain ATCC 39723, PCP-induced; enzyme purified in house from the native bacterium
Method: A stock solution of PCP (concentration, 37.6 mM) was prepared in 0.2M NaOH and stored in the dark at room temperature. Stock solutions of all other halogenated aromatic compounds (concentration, 20 mM) were prepared in absolute ethanol and stored at 4° C. in the dark. The NADPH solution of 10 mM was freshly prepared in 1 mM dithiothreitol and 1 mM Tris base (pH 13).
PcpB was purified as described above. Enzyme reactions were conducted in 80 mM potassium phosphate buffer (pH 7.5) with 0.5% Tween 20 at 23° C. The enzyme concentration was 500 μg/ml in all reactions.
All of the aromatic substrates and the corresponding enzyme product (aromatic portion) were monitored by reverse phase high-performance liquid chromatography (HPLC) analysis as described above for PCP and TeCH analysis, except that the absorptions at 285, 300, and 310 nm were recorded by using a Waters 490 E programmable multiwavelength UV detector. Gas chromatography/mass spectrometry (GC/MS) analysis was done as previously described (Topp and Akhtar, 1990).
I^- was measured by the Leuco crystal violet assay described above. NO2 was colorimetrically measured using the N-(1-naphthyl) ethylenediamine dihydrochloride-sulfanilamide reagent method (American Public Health Association, 17th Ed., 1989). NH3 was colorimetrically measured by Nesslerization method (American Public Health Association, 17th Ed., 1989). CN was measured by the colorimetric method of Nagashima (1984). NH2 OH was measured by the method of Magee and Burris (1954).
^a All enzyme reactions were conducted in a reaction mix volume of 10
μl, containing 10 nmoles of substrate, 40 nmoles of NADPH. The
substrate depletion and product production were measured by HPLC or GC/MS
analysis. Relative enzyme activity for PCP was assumed to be 100%; the
relative enzyme activities for other compounds were compared with that fo

[2] = Stability of TeCH in the PcpB reaction mixture; format: physicochemical
PcpC = target: T2, PcpC (Sphingobium chlorophenolicum, UniProt Q03520); format: biochemical, Flavobacterium sp. Strain ATCC 39723; settings: 33 μg of purified enzyme per ml; GC-MS of ether extract
T2 construct: endogenous in cells; host or cells: Flavobacterium sp; Strain ATCC 39723, PCP-induced; enzyme purified in house from the native bacterium
Method: Enzymatic activity assay. The reaction mixture contained 50 mM KPi buffer (pH 7.4), 0.4% Tween 20 (Sigma), 100 μM of TeCH, and 1 mM ascorbic acid. All the reactions were incubated at 23° C. in an anaerobic chamber containing an atmosphere of 85% N2, 5% CO2, and 10% H2 (Coy Laboratory Products Inc., Ann Arbor, Mich.). The reactions were stopped by addition of an equal volume of acetonitrile to the reaction mixture. TeCH stock solution (20 mM) was prepared in absolute ethanol. NADPH and NADH stock solutions (10 mM) were freshly prepared in 1 mM Tris buffer (pH 13) with 1 mM dithiothreitol. […]
Analytical method. […] TeCH, TrCH and DiCH were analyzed by HPLC on a Nova-Pak C-18 column (3.9 by 150 mm) (Waters, Milford, Mass.) with an 11 mM H3 PO4 -acetonitrile gradient as described above. Maximum absorption at 285, 300, 310 nm was recorded by using a Waters 490E programmable multiwave-length UV detector connected to a Maxima NEC computer workstation (Waters). […] TeCH and DiCH in the reaction mixtures were identified and quantified by comparison of their retention time and peak areas with that of authentic standards, respectively. TrCH was extracted with diethyl ether from the reaction mixture and analyzed by gas chromatography/mass spectrometry (GC/MS) as described by Topp and Akhtar (1990). […] GSH and the oxidized form of glutathione (GS-SG) were detected by the enzymatic method of Tietze (1969).

PcpB [3] = target: T1, PcpB; experiment: PCP degradation as an assay of PcpB activity (HPLC); format: biochemical, Flavobacterium sp. Strain ATCC 39723
Method: PcpB activity was assayed by measuring the depletion of PCP and/or the production of TECH. […] MgSO4 was later determined not to enhance the activity of the purified enzyme. Tween 20 was determined to facilitate reproducible quantitation of PCP by high-performance liquid chromatography (HPLC) analysis as described below. A 10 μl volume of reaction mixture was injected onto the HPLC column at 4 min. after the start of the reaction. One unit of enzyme activity was defined as the amount of enzyme that catalyzed the production of 1 μmol of TeCH or the consumption of 1 μmol of PCP per min under the assay conditions. The reaction rate was linear for about 5 min. with […] of the enzyme, and then the reaction rate decreased gradually over the next 15 min.
PCP and TeCH were analyzed by HPLC (Waters, Milford, Mass.) on a Nova-Pak C18 column (3.9 by 150 mm) with an 11 mM H3 PO4 -acetonitrile gradient (acetonitrile concentrations 10 to 65% 5 min.! and 65% 10 min.!). Maximum absorption at 310, 320, and 330 nm was recorded by use of a Waters 490E programmable multiwavelength UV detector connected to a Maxima NEC computer workstation (Waters). The retention times of PCP and TeCH were 11.5 and 8.9 min., respectively. PCP and TeCH were quantified by comparing their peak areas with the peak areas of authentic standards. NADPH concentration in the reaction mixture was measured by HPLC on the Nova-Pak C18 column with an isocratic 50 mM KPi buffer (ph 8.0). Flavins were determined by HPLC on a μCarbohydrate analyzing column (3.9 by 300 mm) (Analytical Sciences Incorporated, Santa Clara, Calif.) with an isocratic solution of acetonitrile-distilled water (60:40, vol/vol). Protein purity was checked by HPLC on a Delta Pak C18 30 nm column (3.9 by 150 mm) with a water-acetonitrile gradient containing 0.1% trifluoroacetic acid (acetonitrile concentrations, 15% 1 min.!, 15 to 40% 1 min.!, 40% 2 min.!, 40 to 75% 8 min.!, 75 to 100% 1 min.!, 100% 7 min.!, 100 to 15% 1 min.!) at a flow rate of 1 ml/min. […]
and incubated at room temperature for 4 min. before being analyzed by […]

PcpB [4] = target: T1, PcpB; settings: GC/MS; cited from earlier work

T1 sequence (P42535 2-538): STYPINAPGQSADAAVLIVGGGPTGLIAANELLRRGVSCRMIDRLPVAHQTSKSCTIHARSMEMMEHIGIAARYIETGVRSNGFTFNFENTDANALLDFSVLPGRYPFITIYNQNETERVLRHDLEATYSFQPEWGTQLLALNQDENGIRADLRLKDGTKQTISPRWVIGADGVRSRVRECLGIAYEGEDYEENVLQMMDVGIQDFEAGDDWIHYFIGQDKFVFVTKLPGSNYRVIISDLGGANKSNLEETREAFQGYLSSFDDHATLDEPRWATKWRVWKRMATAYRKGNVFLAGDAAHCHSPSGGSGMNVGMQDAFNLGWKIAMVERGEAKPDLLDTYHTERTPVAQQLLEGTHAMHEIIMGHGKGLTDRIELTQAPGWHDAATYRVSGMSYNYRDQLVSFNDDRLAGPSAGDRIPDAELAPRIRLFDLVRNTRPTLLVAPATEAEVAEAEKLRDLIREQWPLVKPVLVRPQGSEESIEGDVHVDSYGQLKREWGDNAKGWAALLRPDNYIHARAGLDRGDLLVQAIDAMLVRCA
T2 sequence (Q03520 2-248): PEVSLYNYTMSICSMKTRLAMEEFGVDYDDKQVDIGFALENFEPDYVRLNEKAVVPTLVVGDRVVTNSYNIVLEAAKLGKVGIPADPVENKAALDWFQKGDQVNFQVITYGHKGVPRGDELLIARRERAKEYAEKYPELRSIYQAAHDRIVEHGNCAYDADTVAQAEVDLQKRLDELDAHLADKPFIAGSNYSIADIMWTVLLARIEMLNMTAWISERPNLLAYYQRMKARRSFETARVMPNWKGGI

| SMILES | (%) Relative Activity (substrate disappearance in the presence of PcpB) (PcpB [1]) [%] | End Products of PcpB reaction (PcpB [1]) | also measured |
| --- | --- | --- | --- |
| Oc1c(Cl)cccc1Cl [2,6-Dichlorophenol, 2,6-dichlorophenol] | 344 | 2,6-dichloro-p-hydroquinone | – |
| Oc1c(F)c(F)c(F)c(F)c1F [Pentafluorophenol] | 47 | – | – |
| Oc1c(I)cc(I)cc1I [2,4,6-Triiodophenol] | 172 | 2,6-diiodo-p-hydroquinone | – |
| O=[N+]([O-])c1cc(Br)c(O)c(Br)c1 [2,6-Dibromo-4-nitrophenol] | 62 | – | – |
| Oc1ccccc1 [phenol] | – | – | Extent of oxidation/degradation by the enzyme (PcpB [1]): not degraded |
| Oc1c(Cl)c(Cl)c(O)c(Cl)c1Cl [TeCH, 2,3,5,6-tetrachloro-p-hydroquinone] | – | – | stability of TeCH ([2]; optimal pH conditions (7.5 to 9.0)): highly unstable; stability of TeCH ([2]; pH lower than 7.5): relatively stable; product of TeCH conversion by TeCH reductive dehalogenase (PcpC): DiCH |
| Nc1cc(Cl)c(O)c(Cl)c1 [4-Amino-2,6-dichlorophenol] | 93 | – | – |
| Oc1ccc(Cl)c(Cl)c1Cl [2,3,4-Trichlorophenol] | 29 | – | – |
| Oc1cccc(Cl)c1Cl [2,3-Dichlorophenol] | 24 | – | – |
| O=S(=O)([O-])[O-].[Mg+2] [MgSO4] | – | – | influence of additive on activity of purified PcpB (PcpB [3]; addition to 5 mM): did not influence the enzymatic activity |
| Oc1c(Br)cc(Br)cc1Br [2,4,6-Tribromophenol] | 35 | – | – |
| Oc1c(Cl)ccc(Cl)c1Cl [2,3,6-Trichlorophenol, 2,3,6-trichlorophenol] | 302 | 2,3,6-trichloro-p-hydroquinone | – |
| Oc1cc(Cl)cc(Cl)c1 [3,5-Dichlorophenol, 3,5dichlorophenol] | 0 | None | – |
| Oc1c(Cl)c(Cl)c(Cl)c(Cl)c1Cl [Pentachlorophenol] | 100 | – | Conversion of PCP to TeCH by purified PcpB (PcpB [3]; 37 μM PCP, 100 mM KPi buffer (pH 7.0), 100 μM NADPH, within 20 min.): completely converted; End Products of PcpB reaction (PcpB [1]; listed as PCP): TeCH |
| N#Cc1cc(I)c(O)c(I)c1 [3,5-Diiodo-4-hydroxybenzonitrile] | 835 | – | End Products of PcpB reaction (PcpB [1]; listed as 3,5-diiodo-4-hydroxylbenzonitrile): DIHQ |
| O=C(O)CN(CCN(CC(=O)O)CC(=O)O)CC(=O)O [EDTA] | – | – | influence of additive on activity of purified PcpB (PcpB [3]): did not influence the enzymatic activity |
| N#Cc1cc(Br)c(O)c(Br)c1 [3,5-Dibromo-4-hydroxybenzonitrile] | 591 | – | End Products of PcpB reaction (from Topp et al.) (PcpB [4]): 2,6-dibromo-p-hydroquinone |
| Oc1c(Cl)c(Cl)cc(Cl)c1Cl [2,3,5,6-Tetrachlorophenol] | 1212 | TeCH | – |
| Oc1cc(Cl)c(Cl)c(Cl)c1 [3,4,5-Trichlorophenol, 3,4,5trichlorophenol] | 0 | None | – |
| Oc1c(Br)cccc1Br [2,6-Dibromophenol] | 605 | – | – |
| Oc1c(Cl)cc(Cl)cc1Cl [2,4,6-Trichlorophenol, 2,4,6-trichlorophenol] | 29 | 2,6-dichloro-p-hydroquinone | – |
